A word on the Ki: it is the dissociation constant of the complex between target and ligand, obtained from inhibition or displacement. The EC50 is the midpoint of the concentration-response curve.

Data on ten compounds can be found in article PMC7280195, “Simple ammonium salts acting on sigma-1 receptors yield potential treatments for cancer and depression” (Scientific Reports, 2020).

One data set has as its target muscarinic receptor. The arrangement: method as in PMID 11834244. Conditions: cited from earlier work.
The subject of another data set is MCF7 cells. The format is cell-based.
The target of the next data set is T1, sigma-2 receptor (Homo sapiens, UniProt Q5BJF2).
T1 construct: MCF7 cells were suspended in sigma-2 assay buffer (50 mM Tris-HCl; pH 8.0), sonicated (1 minute) and the homogenate was centrifuged; endogenous in cells; host or cells: MCF7 cells (gift), membrane pellet
Put plainly: biochemical. Type of data set: binding.

Data set [1] deals with MDA-MB-468 cells. Description: Fura-2 cytoplasmic calcium measurement in MDA-MB-468 cells. Type of data set: cell-based.
A further data set concerns MAC13 tumours. Conditions: for MAC13 tumour growth compared to vehicle control: 10 mg.kg−1 i.v. daily from day 12, P < 0.001; for tolerability in tumour-bearing mice: 10 mg.kg−1 i.v. daily, grooming activity maintained.
The target of data set [2] is muscarinic acetylcholine receptor. Type of data set: binding, rat. Conditions: for mACh R affinity pKi ± SEM (n) / Ki: rat brain membranes; for mACh R affinity pKi ± SEM (n): 1.35 nM [3H] QNB; for Ki: read-out: mACh R affinity Ki; for mACh R Ki/σ-1 R Ki: ratio between Ki values.
Data set [3] relates to MDA-MB-468 cells. Put plainly: cells. Type of data set: cell-based.
A further data set relates to MAC13 cells. Description: MTS assay in MAC13 cells in vitro. Type of data set: cell-based, mouse. The conditions noted are these: mean ± SEM, n = 6. On the procedure:
Cells (10,000 cells per well, 100 μl) were seeded into 96-well plates and allowed to adhere overnight. The following day drugs were added and cells were permitted to proliferate for 24 hours before the addition of 10 μl CellTiter 96 AQueous Non-Radioactive Cell Proliferation Assay reagent (Promega, Southampton, UK) as previously described. Absorbance (490 nm) readings were taken at 0, 1, 2 and 3 hours to monitor formazan formation and rates of metabolic activity were compared.
In general terms: Tetrazolium dyes change colour on reduction, which living cells bring about.

Data set [4] addresses noradrenaline transporter. The conditions noted are these: read-out: Ki noradrenaline transport, previously published; cited from earlier work.
For data set [5], the system named is mice. Put plainly: Locomotor activity (Actophotometer). Type of data set: in vivo. The conditions noted are these: control 140 ± 15. On the procedure:
All drugs were dissolved in normal saline and different doses were administered intraperitoneally in a fixed volume of 1 ml.100 g^−1 body weight 30 minutes before the animals were subjected to the test.
Locomotor activity (ambulations) was measured by using a computerised Actophotometer (IMCORP, India). […] Mice were allowed to acclimatise to the observation chamber for a period of 2 minutes. The activity was monitored continuously for a period of 15 minutes. Locomotion was expressed in terms of total photobeam counts per 15 minutes per animal and compared to vehicle control groups as previously described.

A further data set has as its target human 5-HT transporter (Homo sapiens, UniProt P31645). Type of data set: cell-based. The conditions noted are these: for IC50: read-out: IC50 serotonin reuptake.
Data set [6] deals with T2, human dopamine transporter (Homo sapiens, UniProt Q01959).
T2 construct: expressed in transfected cells
Put plainly: Monoamine transporter uptake assay, 293 cells expressing dopamine transporter. Type of data set: cell-based. Conditions: for IC50: read-out: IC50 dopamine transport.

Data set [7] relates to mice. Description: Tail suspension test. The format is in vivo.
Description: Animals were acclimatised to laboratory conditions before the experiment. Each animal was used only once. […] All drugs were dissolved in normal saline and different doses were administered intraperitoneally in a fixed volume of 1 ml.100 g^−1 body weight 30 minutes before the animals were subjected to the test. […] Each mouse was considered immobile when it hung passively and completely motionless. The total immobility period was recorded and compared to vehicle control group.
Data set [8] concerns mice. Description: Forced-swim test. Type of data set: in vivo.
For data set [9], the target named is human noradrenaline transporter (Homo sapiens, UniProt P23975). Description: Monoamine transporter uptake assay, 293 cells expressing noradrenaline transporter. The format is cell-based. The conditions noted are these: for IC50: read-out: IC50 noradrenaline transport.
In the next data set the test system is dopamine transporter. Set-up: method as in PMID 10525084. Conditions: read-out: dopamine transport inhibition, previously published; cited from earlier work.
For data set [10], the system named is MDA-MB-468 cells. The conditions noted are these: cited from earlier work.
Data set [11] has as its system MDA-MB-468 cells. Conditions: cited from earlier work. The source holds these as a separate data set.
Setting [12] is: dipentylammonium 5 mg.kg−1 plus BD1047 4 mg.kg−1.

Like-named read-outs stand apart in the source and are kept apart here. Some results are limits rather than exact numbers.

T1 sequence (Q5BJF2 whole entry): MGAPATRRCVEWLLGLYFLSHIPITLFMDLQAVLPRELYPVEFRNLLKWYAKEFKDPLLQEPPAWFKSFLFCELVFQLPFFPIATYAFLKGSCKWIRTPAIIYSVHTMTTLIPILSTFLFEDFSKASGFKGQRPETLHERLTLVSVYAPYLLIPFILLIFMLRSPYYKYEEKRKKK
Sequence of human noradrenaline transporter (P23975 whole entry): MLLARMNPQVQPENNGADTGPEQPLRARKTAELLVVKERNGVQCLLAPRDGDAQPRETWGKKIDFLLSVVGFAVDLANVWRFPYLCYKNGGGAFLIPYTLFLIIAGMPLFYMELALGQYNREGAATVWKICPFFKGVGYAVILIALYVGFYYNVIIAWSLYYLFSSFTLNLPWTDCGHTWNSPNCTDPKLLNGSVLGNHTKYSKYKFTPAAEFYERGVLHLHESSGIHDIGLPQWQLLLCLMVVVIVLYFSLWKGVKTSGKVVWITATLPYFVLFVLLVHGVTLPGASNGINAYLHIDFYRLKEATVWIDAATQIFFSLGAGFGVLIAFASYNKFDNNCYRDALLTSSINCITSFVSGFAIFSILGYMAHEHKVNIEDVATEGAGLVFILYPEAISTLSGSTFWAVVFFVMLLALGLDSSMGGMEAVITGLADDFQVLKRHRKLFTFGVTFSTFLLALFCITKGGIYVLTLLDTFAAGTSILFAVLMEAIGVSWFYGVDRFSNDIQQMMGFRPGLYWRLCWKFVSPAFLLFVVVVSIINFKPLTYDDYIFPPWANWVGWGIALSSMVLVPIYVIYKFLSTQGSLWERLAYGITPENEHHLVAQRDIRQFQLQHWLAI
Sequence of human 5-HT transporter (P31645 whole entry): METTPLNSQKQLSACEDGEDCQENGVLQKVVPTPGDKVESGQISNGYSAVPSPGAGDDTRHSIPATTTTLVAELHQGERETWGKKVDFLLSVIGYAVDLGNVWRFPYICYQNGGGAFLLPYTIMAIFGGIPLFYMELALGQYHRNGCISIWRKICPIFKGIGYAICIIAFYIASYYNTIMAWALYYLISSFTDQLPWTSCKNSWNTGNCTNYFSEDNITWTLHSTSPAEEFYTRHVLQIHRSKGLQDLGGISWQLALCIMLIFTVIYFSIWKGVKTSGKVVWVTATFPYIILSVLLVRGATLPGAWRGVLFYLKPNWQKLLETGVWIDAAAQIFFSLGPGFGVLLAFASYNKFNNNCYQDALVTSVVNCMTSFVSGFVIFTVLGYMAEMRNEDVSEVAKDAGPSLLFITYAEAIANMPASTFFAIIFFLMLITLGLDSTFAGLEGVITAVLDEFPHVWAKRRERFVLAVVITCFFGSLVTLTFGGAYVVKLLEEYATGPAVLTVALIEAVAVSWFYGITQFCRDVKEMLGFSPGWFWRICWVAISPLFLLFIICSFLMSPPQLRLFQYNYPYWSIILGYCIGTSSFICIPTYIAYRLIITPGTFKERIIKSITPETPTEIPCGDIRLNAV
T2 sequence (Q01959 whole entry): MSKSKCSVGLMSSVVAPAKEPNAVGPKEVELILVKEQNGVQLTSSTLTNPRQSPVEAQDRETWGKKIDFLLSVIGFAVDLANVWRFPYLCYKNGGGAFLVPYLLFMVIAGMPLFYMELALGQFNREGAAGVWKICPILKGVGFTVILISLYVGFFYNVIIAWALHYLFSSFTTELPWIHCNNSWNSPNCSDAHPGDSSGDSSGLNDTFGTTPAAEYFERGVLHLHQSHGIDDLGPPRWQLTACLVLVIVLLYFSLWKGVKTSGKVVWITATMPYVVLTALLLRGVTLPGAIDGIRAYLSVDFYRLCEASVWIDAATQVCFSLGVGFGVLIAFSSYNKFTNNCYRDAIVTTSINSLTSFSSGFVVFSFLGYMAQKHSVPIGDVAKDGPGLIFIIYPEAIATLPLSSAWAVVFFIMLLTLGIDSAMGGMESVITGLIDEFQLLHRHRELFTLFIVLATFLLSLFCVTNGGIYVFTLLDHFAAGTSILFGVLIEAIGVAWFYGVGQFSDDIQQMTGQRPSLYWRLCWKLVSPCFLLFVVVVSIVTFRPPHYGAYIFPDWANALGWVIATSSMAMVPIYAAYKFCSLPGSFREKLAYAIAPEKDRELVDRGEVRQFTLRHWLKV

As for `CC(C)=CCN1CC[C@]2(C)c3cc(O)ccc3C[C@H]1[C@H]2C` [(+) pentazocine], the pKi muscarinic receptor at muscarinic receptor is reported as 6.29 ± 0.06.

For `CCCCC(CC)CNCC(CC)CCCC` (stereo not drawn) [Bis(2-ethylhexyl), bis(2-ethylhexyl)ammonium], the “effect on MCF7 cells in MTS assay” value in the data set with MCF7 cells is recorded as “without effect”. For the same compound, at sigma-2 receptor, the “σ-2 R affinity pKi ± SEM (n)” value is on record as 4.0 ± 0.2 (3). In addition, the inhibitory constant (Ki) on sigma-2 receptor (read-out: σ-2 R affinity Ki) worked out at 91 µM. The pEC50 calcium response in the data set on MDA-MB-468 cells [1] (Fura-2 loaded MDA-MB-468 cells) was found to be 2.9 ± 0.1. For the same compound, in the data set with MAC13 tumours, the “MAC13 tumour growth compared to vehicle control” value is listed as “statistically significant reduction in tumour growth” and the “tolerability in tumour-bearing mice” value is “no negative signs”. In data set [2], the “mACh R affinity pKi ± SEM (n)” value is 3.9 ± 0.2 (6), the inhibition constant Ki was 120 µM and the “mACh R Ki/σ-1 R Ki” value worked out at 4.1. In the data set with MDA-MB-468 cells [3], the “pIC50 reduction of cell metabolism” value is 3.3 ± 0.1 and the “pIC50 reduction of cell metabolism, non-targeting control” value is listed as 3.37 ± 0.08. Moreover, the “pIC50 reduction in MAC13 cell metabolism” value in the data set on MAC13 cells was 5.3 ± 0.2.

Take `CNCCCN1c2ccccc2CCc2ccccc21` [Desipramine, desipramine]: the inhibitory constant (Ki) in data set [4] is 0.0043 µM.

As to `C1CCC(NC2CCCCC2)CC1` [Dicyclohexyl, dicyclohexylammonium], in the data set with MCF7 cells (MCF7 cells (sigma-2 only)), the “effect on MCF7 cells in MTS assay” value is “without effect”. For the same compound, the Ki at sigma-2 receptor is 0.138 µM. Moreover, in the data set with MDA-MB-468 cells [3] (Homo sapiens, MDA-MB-468, 24 h, read-out: pIC50 reduction of cell metabolism (converted)), the IC50 is 126 µM.

For `CCCCCCCCNCCCCCCCC` [Dioctyl, dioctylammonium], at sigma-2 receptor, the “σ-2 R affinity pKi ± SEM (n)” value is recorded as 7.9 ± 0.5 (3). Also, the Ki at sigma-2 receptor (read-out: Ki for sigma-2 receptors) stood at 0.013 µM; on sigma-2 receptor (read-out: σ-2 R affinity Ki), 0.014 µM. Also, the “behaviour in the calcium buffer” value with MDA-MB-468 cells [1] (calcium response could not be assessed) is on record as “precipitation was observed”. Also, the “pIC50 reduction of cell metabolism” value in the data set with MDA-MB-468 cells [3] came to 5.0 ± 0.2.

As to `CCCCCNCCCCC` [Dipentyl, dipentylammonium], the figures for the locomotion in the data set on mice [5] (5 mg.kg−1 alone) and with mice [5] (setting [12]) were 128 ± 19 events in 15 minutes and 114 ± 14 events in 15 minutes, respectively. The “σ-2 R affinity pKi ± SEM (n)” value on sigma-2 receptor was 6.9 ± 0.2 (3). Further, the inhibition constant (Ki) at sigma-2 receptor (read-out: σ-2 R affinity Ki) was 0.12 µM; in [2], 380 µM. The compound further registered a pIC50 serotonin reuptake on human 5-HT transporter of 3.0 ± 0.2. The IC50 came to 1100 µM on human 5-HT transporter, 600 µM in [6] and 200 µM in [9]. In data set [6], this compound returned a pIC50 dopamine transport of 3.2 ± 0.2. Also, the “mACh R affinity pKi ± SEM (n)” value in data set [2] is 3.4 ± 0.2 (5). The “mACh R Ki/σ-1 R Ki” value in [2] turned out to be 8840. Besides, the “time spent immobile, tail suspension test” value in the data set with mice [7] (5 mg.kg−1, 6 minutes, control 235 ± 19) came to 116 ± 7 s; in the data set on mice [7] (setting [12]), 182 ± 30 s. The “time spent immobile, forced-swim test” value with mice [8] (5 mg.kg−1 i.p., 6 minutes, control 233 ± 10) worked out at 80 ± 13 s; in the data set on mice [8] (setting [12]), 185 ± 5 s. This compound also came in with a pIC50 noradrenaline transport in data set [9] of 3.6 ± 0.1.

For `CNCCC(Oc1ccc(C(F)(F)F)cc1)c1ccccc1` (stereo not drawn) [Fluoxetine, fluoxetine, reference compound], the “time spent immobile, tail suspension test” value in the data set with mice [7] (10 mg.kg−1, 6 minutes, control 235 ± 19) was 126 ± 22 s. Further, the “time spent immobile, forced-swim test” value in the data set on mice [8] (10 mg.kg−1 i.p., 6 minutes, control 233 ± 10) amounted to 153 ± 19 s.

Consider `c1ccc(CCCN2CCN(CCOC(c3ccccc3)c3ccccc3)CC2)cc1` [GBR-12935], for which the IC50 with dopamine transporter was […].

Turning to `N=C(Nc1ccc(I)cc1)NC1C2CC3CC(C2)CC1C3` (stereo not drawn) [IPAG, 1-(4-iodophenyl)-3-(2-adamantyl)guanidine], the pEC50 calcium signalling in the data set on MDA-MB-468 cells [10] is 3.9. Also, the EC50 is 123 µM with MDA-MB-468 cells [10] (read-out: EC50 calcium signalling) and 24 µM in the data set with MDA-MB-468 cells [11] (read-out: EC50 reduction of cellular metabolic activity). The “mACh R affinity pKi ± SEM (n)” value in data set [2] was 4.3. Besides, in the data set with MDA-MB-468 cells [11], the “pEC50 reduction of cellular metabolic activity” value is 4.6.

Turning to triisopentylammonium, in the data set with MCF7 cells, the “effect on MCF7 cells in MTS assay” value was “without effect”. Besides, at sigma-2 receptor, the “higher affinity for sigma-2 receptors over sigma-1 receptors” value turned out to be 200 fold and the “σ-2 R affinity pKi ± SEM (n)” value is given as 6.40 ± 0.09 (3). The Ki at sigma-2 receptor (read-out: σ-2 R affinity Ki) is 0.4 µM. Moreover, the “concentration showing a calcium response” value with MDA-MB-468 cells [1] (data not shown) is recorded as at least 1 mM. In the data set with MAC13 tumours, the “MAC13 tumour growth compared to vehicle control” value is on record as “statistically significant reduction in tumour growth” and the “tolerability in tumour-bearing mice” value is listed as “no negative signs”. In addition, the IC50 on human 5-HT transporter amounted to 7800 µM. The IC50 in data set [6] was 1600 µM. Further, in data set [2], the “mACh R affinity pKi ± SEM (n)” value is on record as 3.60 ± 0.11 (5), the Ki is 251 µM and the “mACh R Ki/σ-1 R Ki” value turned out to be 3.4. For the same compound, in the data set with MDA-MB-468 cells [3], the “pIC50 reduction of cell metabolism” value is 2.96 ± 0.06 and the “pIC50 reduction of cell metabolism, non-targeting control” value is listed as 2.9 ± 0.2. Besides, the IC50 in data set [9] came out at 7800 µM. Besides, in the data set on MAC13 cells, the “pIC50 reduction in MAC13 cell metabolism” value came to 4.4 ± 0.2.
